Experimental data: ChEMBL document CHEMBL5252651, “Discovery of Bioactive Metabolites by Acidic Stress to a Geldanamycin Producer, Streptomyces samsunensis” (J Nat Prod, 2023)
Active and inactive are the calls of the source.

Assays:
Assay type in all cases: functional, organism-based
Staphylococcus aureus [1] = experiment: Antivirulence activity against methicillin-resistant Staphylococcus aureus USA300 LAC assessed as change in […] transcriptional level at 10 ug/ml incubated for 8 to 16 hrs by qRT-PCR analysis; conditions: dose 10.0 µg/ml, time 8-16 hrs
Staphylococcus aureus [2] = experiment: Antibacterial activity against methicillin-resistant Staphylococcus aureus USA300 LAC assessed as bacterial growth inhibition at 10 ug/ml incubated for 22 hrs by microplate reader analysis; conditions: dose 10.0 µg/ml
Staphylococcus aureus [3] = experiment: Antivirulence activity against methicillin-resistant Staphylococcus aureus USA300 LAC assessed as change in RNAIII transcriptional level at 10 ug/ml incubated for 8 to 16 hrs by qRT-PCR analysis; conditions: dose 10.0 µg/ml, time 8-16 hrs
Staphylococcus aureus [4] = experiment: Anti-biofilm activity against methicillin-resistant Staphylococcus aureus USA300 LAC assessed as inhibition of biofilm formation incubated for 22 hrs by crystal violet staining based assay
Staphylococcus = experiment: Antivirulence activity against methicillin-resistant Staphylococcus aureus USA300 LAC assessed as inhibition of Phenol soluble modulin production at 5 ug/ml incubated for 22 hrs by LC-MS analysis; conditions: dose 5.0 µg/ml
Staphylococcus aureus [5] = experiment: Antibacterial activity against methicillin-resistant Staphylococcus aureus USA300 LAC assessed as bacterial growth inhibition at 5 ug/ml incubated for 22 hrs by microplate reader analysis; conditions: dose 5.0 µg/ml

CO[C@@H](C[C@H](C)Cc1cc(O)cc(NC(C)=O)c1)[C@H](O)[C@H](C)C(=O)O
inactive: Activity (Staphylococcus aureus [1]) | Activity (Staphylococcus aureus [2]) | Activity (Staphylococcus aureus [3]) | Activity (Staphylococcus aureus [4]) | inhibition (Staphylococcus) | Activity (Staphylococcus aureus [5])

CO[C@@H](C[C@H](C)Cc1cc(O)cc(NC(C)=O)c1)C(=O)O
inactive: Activity (Staphylococcus aureus [4]) | inhibition (Staphylococcus) | Activity (Staphylococcus aureus [5])

COc1c(-c2ccccc2)cc(O[C@@H]2O[C@H](C(=O)O)[C@@H](O)[C@H](O)[C@H]2O)c(-c2ccccc2)c1O
inactive: Activity (Staphylococcus aureus [4]) | inhibition (Staphylococcus) | Activity (Staphylococcus aureus [5])

CO[C@H]1/C=C\C=C(/C)C(=O)NC2=CC(=O)C(O)=C(C[C@@H](C)C[C@H](OC)[C@H](O)[C@@H](C)/C=C(\C)[C@@H]1OC(N)=O)C2=O
inactive: Activity (Staphylococcus aureus [1]) | Activity (Staphylococcus aureus [2]) | Activity (Staphylococcus aureus [3]) | Activity (Staphylococcus aureus [4]) | inhibition (Staphylococcus) | Activity (Staphylococcus aureus [5])

CO[C@H]1C[C@H](C)CC2=C(O)C(=O)C=C(NC(=O)/C(C)=C/[C@@H](O)C[C@H](OC)[C@@H](OC(N)=O)/C(C)=C/[C@H](C)[C@H]1O)C2=O
inactive: Activity (Staphylococcus aureus [4]) | inhibition (Staphylococcus) | Activity (Staphylococcus aureus [5])

O=C(O)/C=C/C1=C(c2cccc(O)c2)C(=O)CC[C@H]1O
inactive: Activity (Staphylococcus aureus [4]) | inhibition (Staphylococcus) | Activity (Staphylococcus aureus [5])

Cc1cc(C[C@H](NC(=O)/C=C/C=C/CO)C(=O)O)ccc1O
inactive: Activity (Staphylococcus aureus [4]) | inhibition (Staphylococcus) | Activity (Staphylococcus aureus [5])

CO[C@H]1/C=C\C=C(/C)C(=O)Nc2cc(O)c(O)c(c2O)C[C@@H](C)C[C@H](OC)[C@H](O)[C@@H](C)/C=C(\C)[C@@H]1OC(N)=O
inactive: Activity (Staphylococcus aureus [4]) | inhibition (Staphylococcus) | Activity (Staphylococcus aureus [5])

CC(=O)Nc1cc(O)cc(C[C@@H](C)C(=O)O)c1
inactive: Activity (Staphylococcus aureus [4]) | inhibition (Staphylococcus) | Activity (Staphylococcus aureus [5])

CO[C@H]1C[C@H](C)CC2=C(O)C(=O)C=C(NC(=O)/C(C)=C/[C@H](O)C[C@H](OC)[C@@H](OC(N)=O)/C(C)=C/[C@H](C)[C@H]1O)C2=O
inactive: Activity (Staphylococcus aureus [4]) | inhibition (Staphylococcus) | Activity (Staphylococcus aureus [5])

COC1=C2C[C@@H](C)C[C@H](OC)[C@H](O)[C@@H](C)/C=C(\C)[C@H](OC(N)=O)[C@@H](OC)/C=C\C=C(/C)C(=O)NC(=CC1=O)C2=O
inactive: Activity (Staphylococcus aureus [1]) | Activity (Staphylococcus aureus [2]) | Activity (Staphylococcus aureus [3]) | Activity (Staphylococcus aureus [4]) | inhibition (Staphylococcus) | Activity (Staphylococcus aureus [5])
